Test results as given in patent US20240294522A1 (Lead Discovery Center GmbH, priority 2021, published 2024).

What was measured:
GRK5 = target: T1, GRK5 (Homo sapiens, UniProt P34947); experiment: Lance Kinase Activity Assay, GRK5; conditions: biochemical Lance kinase activity assay; class symbols A-F; read-out: GRK5 LANCE Assay (IC-50)
T1 construct: purchased Thermo Scientific
In short: (§1)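 IC50s from sigmoidal dose-response over 0.0025-10 μM compound, with phosphorylated ULight substrate detected by Eu anti-phospho antibody FRET after EDTA quench.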

GRK2 = target: T2, GRK2 (Homo sapiens, UniProt P25098); experiment: Lance Kinase Activity Assay, GRK2; conditions: biochemical Lance kinase activity assay; class symbols A-F; read-out: GRK2 LANCE Assay (IC-50)
T2 construct: purchased Thermo Scientific
T2 sequence (P25098 1-689): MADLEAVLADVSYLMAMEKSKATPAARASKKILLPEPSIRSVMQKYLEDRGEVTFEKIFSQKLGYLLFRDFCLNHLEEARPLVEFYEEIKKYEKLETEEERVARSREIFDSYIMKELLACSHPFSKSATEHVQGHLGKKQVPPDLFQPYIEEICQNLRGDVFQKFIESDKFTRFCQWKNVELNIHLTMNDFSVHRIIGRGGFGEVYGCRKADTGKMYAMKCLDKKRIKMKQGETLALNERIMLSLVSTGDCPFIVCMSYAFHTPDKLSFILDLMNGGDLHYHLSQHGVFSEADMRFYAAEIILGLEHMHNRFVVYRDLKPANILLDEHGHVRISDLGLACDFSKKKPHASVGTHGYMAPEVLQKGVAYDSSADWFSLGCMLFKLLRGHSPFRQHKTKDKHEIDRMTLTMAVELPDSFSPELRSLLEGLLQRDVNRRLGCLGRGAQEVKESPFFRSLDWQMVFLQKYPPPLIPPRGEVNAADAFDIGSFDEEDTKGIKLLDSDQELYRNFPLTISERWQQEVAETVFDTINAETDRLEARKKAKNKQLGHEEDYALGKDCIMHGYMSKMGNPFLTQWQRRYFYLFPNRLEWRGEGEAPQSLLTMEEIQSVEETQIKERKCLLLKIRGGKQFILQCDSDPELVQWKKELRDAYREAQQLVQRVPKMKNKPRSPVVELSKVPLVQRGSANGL
In short: as §1

T1 sequence (P34947 whole entry): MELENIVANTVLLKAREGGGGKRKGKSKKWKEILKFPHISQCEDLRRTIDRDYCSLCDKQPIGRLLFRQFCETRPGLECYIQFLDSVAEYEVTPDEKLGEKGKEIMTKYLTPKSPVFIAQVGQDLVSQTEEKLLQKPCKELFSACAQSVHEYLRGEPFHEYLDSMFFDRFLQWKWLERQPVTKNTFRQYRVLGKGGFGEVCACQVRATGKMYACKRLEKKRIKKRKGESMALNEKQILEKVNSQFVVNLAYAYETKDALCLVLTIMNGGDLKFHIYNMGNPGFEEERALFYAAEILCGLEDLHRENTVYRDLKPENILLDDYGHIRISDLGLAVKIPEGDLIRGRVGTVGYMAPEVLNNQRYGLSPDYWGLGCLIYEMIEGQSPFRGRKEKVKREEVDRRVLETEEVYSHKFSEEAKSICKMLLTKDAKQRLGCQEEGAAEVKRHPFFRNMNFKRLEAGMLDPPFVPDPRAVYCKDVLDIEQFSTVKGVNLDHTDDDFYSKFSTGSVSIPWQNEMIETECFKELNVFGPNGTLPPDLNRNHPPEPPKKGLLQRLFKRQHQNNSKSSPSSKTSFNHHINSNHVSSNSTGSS

| Compound | IC50 (GRK5) [nM] | IC50 (GRK2) [nM] |
| --- | --- | --- |
| COc1ccc([C@@H](C)NC(=O)/C=C/c2c[nH]c3ncc(-c4cccc(C#N)c4)cc23)cc1OC [Example 221, (R,E)-3-(5-(3-cyanophenyl)-1H-pyrrolo[2,3-b]pyridin-3-yl)-N-(1-(3,4-dimethoxyphenyl)ethyl)acrylamide] | ≤ 50 | > 10000 |
| COc1ccc([C@@H](C)NC(=O)/C=C/c2c[nH]c3ncc(-c4ccccc4S(C)(=O)=O)cc23)cc1OC [Example 222, (R,E)-N-(1-(3,4-dimethoxyphenyl)ethyl)-3-(5-(2-(methylsulfonyl)phenyl)-1H-pyrrolo[2,3-b]pyridin-3-yl)acrylamide] | 1000 to 10000 | > 10000 |
| COc1ccc([C@@H](C)NC(=O)/C=C/c2c[nH]c3nccc(-c4ccc(CN(C)C)cc4)c23)cc1OC [Example 223, (R,E)-N-(1-(3,4-dimethoxyphenyl)ethyl)-3-(4-(4-((dimethylamino)methyl)phenyl)-1H-pyrrolo[2,3-b]pyridin-3-yl)acrylamide] | 100 to 500 | > 10000 |
| COc1ccc([C@@H](C)NC(=O)/C=C/c2c[nH]c3nccc(-c4cccc(CN(C)C)c4)c23)cc1OC [Example 224, (R,E)-N-(1-(3,4-dimethoxyphenyl)ethyl)-3-(4-(3-((dimethylamino)methyl)phenyl)-1H-pyrrolo[2,3-b]pyridin-3-yl)acrylamide] | 100 to 500 | > 10000 |
| COc1ccc([C@@H](C)NC(=O)/C=C/c2c[nH]c3nccc(-c4ccccc4)c23)cc1OC [Example 225, (R,E)-N-(1-(3,4-dimethoxyphenyl)ethyl)-3-(4-phenyl-1H-pyrrolo[2,3-b]pyridin-3-yl)acrylamide] | 50 to 100 | 1000 to 10000 |
| COc1ccc([C@@H](C)NC(=O)/C=C/c2c[nH]c3nccc(-c4ccc(NS(C)(=O)=O)cc4)c23)cc1OC [Example 226, (R,E)-N-(1-(3,4-dimethoxyphenyl)ethyl)-3-(4-(4-(methylsulfonamido)phenyl)-1H-pyrrolo[2,3-b]pyridin-3-yl)acrylamide] | 50 to 100 | 1000 to 10000 |
| COc1ccc([C@@H](C)NC(=O)/C=C/c2c[nH]c3nccc(-c4cccc(S(=O)(=O)N(C)C)c4)c23)cc1OC [Example 227, (R,E)-N-(1-(3,4-dimethoxyphenyl)ethyl)-3-(4-(3-(N,N-dimethylsulfamoyl)phenyl)-1H-pyrrolo[2,3-b]pyridin-3-yl)acrylamide] | 100 to 500 | 1000 to 10000 |
| COc1ccc([C@@H](C)NC(=O)/C=C/c2c[nH]c3nccc(-c4cccc(N(C)C)c4)c23)cc1OC [Example 228, (R,E)-N-(1-(3,4-dimethoxyphenyl)ethyl)-3-(4-(3-(dimethylamino)phenyl)-1H-pyrrolo[2,3-b]pyridin-3-yl)acrylamide] | 50 to 100 | 1000 to 10000 |
| COc1ccc([C@@H](C)NC(=O)/C=C/c2c[nH]c3nccc(-c4ccc(F)cc4OC)c23)cc1OC [Example 229, (R,E)-N-(1-(3,4-dimethoxyphenyl)ethyl)-3-(4-(4-fluoro-2-methoxyphenyl)-1H-pyrrolo[2,3-b]pyridin-3-yl)acrylamide] | 1000 to 10000 | > 10000 |
| COc1ccc([C@@H](C)NC(=O)/C=C/c2c[nH]c3nccc(-c4ccc(OCCN(C)C)cc4)c23)cc1OC [Example 230, (R,E)-N-(1-(3,4-dimethoxyphenyl)ethyl)-3-(4-(4-(2-(dimethylamino)ethoxy)phenyl)-1H-pyrrolo[2,3-b]pyridin-3-yl)acrylamide] | ≤ 50 | 1000 to 10000 |
| COc1ccc([C@@H](C)NC(=O)/C=C/c2c[nH]c3nccc(-c4cccc(NS(C)(=O)=O)c4)c23)cc1OC [Example 231, (R,E)-N-(1-(3,4-dimethoxyphenyl)ethyl)-3-(4-(3-(methylsulfonamido)phenyl)-1H-pyrrolo[2,3-b]pyridin-3-yl)acrylamide] | 100 to 500 | > 10000 |
| COc1ccc([C@@H](C)NC(=O)/C=C/c2c[nH]c3nccc(-c4ccc(CN5CCOCC5)cc4)c23)cc1OC [Example 232, (R,E)-N-(1-(3,4-dimethoxyphenyl)ethyl)-3-(4-(4-(morpholinomethyl)phenyl)-1H-pyrrolo[2,3-b]pyridin-3-yl)acrylamide] | 50 to 100 | 1000 to 10000 |
| COc1ccc([C@@H](C)NC(=O)/C=C/c2c[nH]c3nccc(-c4cccc(C(N)=O)c4)c23)cc1OC [Example 233, (R,E)-3-(3-(3-((1-(3,4-dimethoxyphenyl)ethyl)amino)-3-oxoprop-1-en-1-yl)-1H-pyrrolo[2,3-b]pyridin-4-yl)benzamide] | 50 to 100 | 1000 to 10000 |
| COc1ccc([C@@H](C)NC(=O)/C=C/c2c[nH]c3nccc(-c4ccc(CN5CCN(C)CC5)cc4)c23)cc1OC [Example 234, (R,E)-N-(1-(3,4-dimethoxyphenyl)ethyl)-3-(4-(4-((4-methylpiperazin-1-yl)methyl)phenyl)-1H-pyrrolo[2,3-b]pyridin-3-yl)acrylamide] | 100 to 500 | 1000 to 10000 |
| COc1ccc([C@@H](C)NC(=O)/C=C/c2c[nH]c3nccc(-c4ccc(N5CCN(C(C)=O)CC5)cc4)c23)cc1OC [Example 235, (R,E)-3-(4-(4-(4-acetylpiperazin-1-yl)phenyl)-1H-pyrrolo[2,3-b]pyridin-3-yl)-N-(1-(3,4-dimethoxyphenyl)ethyl)acrylamide] | 50 to 100 | > 10000 |
| COc1ccc([C@@H](C)NC(=O)/C=C/c2c[nH]c3nccc(-c4ccc(C(N)=O)cc4)c23)cc1OC [Example 236, (R,E)-4-(3-(3-((1-(3,4-dimethoxyphenyl)ethyl)amino)-3-oxoprop-1-en-1-yl)-1H-pyrrolo[2,3-b]pyridin-4-yl)benzamide] | 100 to 500 | > 10000 |
| COc1ccc([C@@H](C)NC(=O)/C=C/c2c[nH]c3nccc(-c4cnn(C)c4C)c23)cc1OC [Example 237, (R,E)-N-(1-(3,4-dimethoxyphenyl)ethyl)-3-(4-(1,5-dimethyl-1H-pyrazol-4-yl)-1H-pyrrolo[2,3-b]pyridin-3-yl)acrylamide] | 100 to 500 | > 10000 |
| COc1ccc([C@@H](C)NC(=O)/C=C/c2c[nH]c3nccc(-c4cnn(C)c4)c23)cc1OC [Example 238, (R,E)-N-(1-(3,4-dimethoxyphenyl)ethyl)-3-(4-(1-methyl-1H-pyrazol-4-yl)-1H-pyrrolo[2,3-b]pyridin-3-yl)acrylamide] | 100 to 500 | > 10000 |
| CC[S+]([O-])c1cccc(-c2ccnc3[nH]cc(/C=C/C(=O)N[C@H](C)c4ccc(OC)c(OC)c4)c23)c1 (stereo partly drawn) [Example 239, (E)-N-((R)-1-(3,4-dimethoxyphenyl)ethyl)-3-(4-(3-(ethylsulfinyl)phenyl)-1H-pyrrolo[2,3-b]pyridin-3-yl)acrylamide] | 500 to 1000 | > 10000 |
| COc1ccc([C@@H](C)NC(=O)/C=C/c2c[nH]c3nccc(-c4ccc(C5CCN(C)CC5)cc4)c23)cc1OC [Example 240, (R,E)-N-(1-(3,4-dimethoxyphenyl)ethyl)-3-(4-(4-(1-methylpiperidin-4-yl)phenyl)-1H-pyrrolo[2,3-b]pyridin-3-yl)acrylamide] | 50 to 100 | 1000 to 10000 |
| COc1ccc([C@@H](C)NC(=O)/C=C/c2c[nH]c3nccc(-c4ccc(OCCCN(C)C)cc4)c23)cc1OC [Example 241, (R,E)-N-(1-(3,4-dimethoxyphenyl)ethyl)-3-(4-(4-(3-(dimethylamino)propoxy)phenyl)-1H-pyrrolo[2,3-b]pyridin-3-yl)acrylamide] | 50 to 100 | 1000 to 10000 |
| COc1ccc([C@@H](C)NC(=O)/C=C/c2c[nH]c3nccc(-c4cnn5ccccc45)c23)cc1OC [Example 242, (R,E)-N-(1-(3,4-dimethoxyphenyl)ethyl)-3-(4-(pyrazolo[1,5-a]pyridin-3-yl)-1H-pyrrolo[2,3-b]pyridin-3-yl)acrylamide] | 100 to 500 | > 10000 |
| COc1ccc([C@@H](C)NC(=O)/C=C/c2c[nH]c3nccc(-c4cccc(CNC(C)=O)c4)c23)cc1OC [Example 243, (R,E)-3-(4-(3-(acetamidomethyl)phenyl)-1H-pyrrolo[2,3-b]pyridin-3-yl)-N-(1-(3,4-dimethoxyphenyl)ethyl)acrylamide] | 100 to 500 | > 10000 |
| COc1ccc([C@@H](C)NC(=O)/C(C#N)=C/c2c[nH]c3ncc(-c4ccc(N5CCN(C)CC5)cc4)c(C)c23)cc1OC [Example 244, (R,E)-2-cyano-N-(1-(3,4-dimethoxyphenyl)ethyl)-3-(4-methyl-5-(4-(4-methylpiperazin-1-yl)phenyl)-1H-pyrrolo[2,3-b]pyridin-3-yl)acrylamide] | 500 to 1000 | 1000 to 10000 |
| COc1ccc([C@@H](C)NC(=O)/C(C#N)=C/c2c[nH]c3ncc(-c4ccc(F)c(S(C)(=O)=O)c4)c(C)c23)cc1OC [Example 245, (R,E)-2-cyano-N-(1-(3,4-dimethoxyphenyl)ethyl)-3-(5-(4-fluoro-3-(methylsulfonyl)phenyl)-4-methyl-1H-pyrrolo[2,3-b]pyridin-3-yl)acrylamide] | 500 to 1000 | > 10000 |
